From US8822477B2, “Use of osmolytes obtained from extremophilic bacteria for producing medicine for the external treatment of neurodermatitis” (Bitop AG, priority 2003, dated 2014)

System: neurodermatitis
Experiment: topical treatment of neurodermatitis compared with placebo treatment
Format: in vivo
Settings: for healing of affected skin changes: in comparison to a placebo treatment; for effectiveness in the treatment of neurodermatitis: topic application

CC1=NCC[C@@H](C(=O)O)N1 [ectoine]
healing of affected skin changes: unexpectedly accelerated healing of affected skin changes | effectiveness in the treatment of neurodermatitis: surprisingly high effectiveness

CC1=NC[C@H](O)[C@@H](C(=O)O)N1 [hydroxyectoine]
healing of affected skin changes: unexpectedly accelerated healing of affected skin changes | effectiveness in the treatment of neurodermatitis: surprisingly high effectiveness
